Each block holds one molecule with its values, some of them ahead of it.
Columns and labels:
[1] = molecular target: T1, Protein mono-ADP-ribosyltransferase TIPARP (Homo sapiens) (UniProt Q7Z3E1); test: Inhibition of human recombinant N-terminal FLAG tagged PARP7 (400 to 657 end residues) at 100 nM incubated for 1 hr by ELISA assay relative to control
T1 sequence (whole entry): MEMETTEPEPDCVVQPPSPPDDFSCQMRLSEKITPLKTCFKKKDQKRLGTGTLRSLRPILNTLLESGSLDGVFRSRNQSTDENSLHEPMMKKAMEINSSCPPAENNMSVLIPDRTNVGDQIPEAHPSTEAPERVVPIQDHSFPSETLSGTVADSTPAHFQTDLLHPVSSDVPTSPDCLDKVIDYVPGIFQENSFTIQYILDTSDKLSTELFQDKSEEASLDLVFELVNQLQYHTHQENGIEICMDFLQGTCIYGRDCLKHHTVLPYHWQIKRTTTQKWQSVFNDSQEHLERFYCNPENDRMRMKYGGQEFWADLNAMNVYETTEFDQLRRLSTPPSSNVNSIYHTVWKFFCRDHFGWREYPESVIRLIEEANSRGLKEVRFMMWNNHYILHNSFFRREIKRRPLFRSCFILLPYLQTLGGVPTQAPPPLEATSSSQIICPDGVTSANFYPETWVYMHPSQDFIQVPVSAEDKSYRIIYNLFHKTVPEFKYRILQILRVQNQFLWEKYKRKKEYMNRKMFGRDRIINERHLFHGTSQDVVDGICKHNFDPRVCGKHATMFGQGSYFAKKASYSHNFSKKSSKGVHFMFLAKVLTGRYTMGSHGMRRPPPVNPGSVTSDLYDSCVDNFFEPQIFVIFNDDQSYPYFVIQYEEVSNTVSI

CT26 [2] = test: Antitumor activity against mouse CT26 cells xenografted in BALB/c mouse assessed as tumor growth inhibition at 100 mg/kg, po bid measured for 14 days; type: functional; settings: CT26, 336 h, time 14 day, read-out: TGI
[3] = Toxicity in BALB/c mouse implanted with mouse CT26 cells assessed as kidney damage at 100 mg/kg, po measured for 14 days by hematoxylin and eosin staining based fluorescence microscopic analysis; type: organism-based; settings: in vivo, 336 h, time 14 day
[4] = Clearance in ICR mouse at 1 mg/kg, iv measured upto 24 hrs by LC-MS/MS analysis; type: ADME, organism-based; settings: in vivo
[5] = Tmax in ICR mouse at 1 mg/kg, iv measured upto 24 hrs by LC-MS/MS analysis; type: ADME, organism-based; settings: in vivo
[6] = Half life in ICR mouse at 10 mg/kg, po measured upto 24 hrs by LC-MS/MS analysis; type: ADME, organism-based; settings: in vivo
[7] = MRT(0 to infinity) in ICR mouse at 1 mg/kg, iv measured upto 24 hrs by LC-MS/MS analysis; type: ADME, organism-based; settings: in vivo
[8] = Half life in ICR mouse at 1 mg/kg, iv measured upto 24 hrs by LC-MS/MS analysis; type: ADME, organism-based; settings: in vivo
[9] = Oral bioavailability in ICR mouse at 10 mg/kg measured upto 24 hrs by LC-MS/MS analysis; type: ADME, organism-based; settings: in vivo
[10] = Toxicity in BALB/c mouse implanted with mouse CT26 cells assessed as spleen damage at 100 mg/kg, po measured for 14 days by hematoxylin and eosin staining based fluorescence microscopic analysis; type: organism-based; settings: in vivo, 336 h, time 14 day
CT26 [11] = test: Antitumor activity against mouse CT26 cells implanted in BALB/c mouse assessed as increase in infiltration of CD3 positive CD4 positive T lymphocytes in tumors at 100 mg/kg, po measured after 14 days by flow cytometry (reference value: 7.95%); type: functional; settings: time 14 day
[12] = Tmax in ICR mouse at 10 mg/kg, po measured upto 24 hrs by LC-MS/MS analysis; type: ADME, organism-based; settings: in vivo
[13] = Initial plasma concentration in ICR mouse at 1 mg/kg, iv measured upto 24 hrs by LC-MS/MS analysis; type: ADME, organism-based
[14] = Cytotoxicity against mouse AML12 cells assessed as inhibition of cell growth measured after 6 days by MTT assay; type: toxicity, cell-based
[15] = Apparent volume of distribution in ICR mouse at 10 mg/kg, po measured upto 24 hrs by LC-MS/MS analysis; type: ADME, organism-based; settings: in vivo
CT26 [16] = test: Antitumor activity against mouse CT26 cells implanted in BALB/c mouse assessed as increase in infiltration of CD4 positive CD8 positive T lymphocytes in tumors at 100 mg/kg, po measured after 14 days by flow cytometry (reference value: 6.67%); type: functional; settings: time 14 day
[17] = MRT(0 to infinity) in ICR mouse at 10 mg/kg, po measured upto 24 hrs by LC-MS/MS analysis; type: ADME, organism-based; settings: in vivo
[18] = Toxicity in BALB/c mouse implanted with mouse CT26 cells assessed as liver damage at 100 mg/kg, po measured for 14 days by hematoxylin and eosin staining based fluorescence microscopic analysis; type: organism-based; settings: in vivo, 336 h, time 14 day
[19] = Apparent volume of distribution in ICR mouse at 1 mg/kg, iv measured upto 24 hrs by LC-MS/MS analysis; type: ADME, organism-based; settings: in vivo, read-out: Vz
[20] = AUC(0 to infinity) in ICR mouse at 10 mg/kg, po measured upto 24 hrs by LC-MS/MS analysis; type: ADME, organism-based; parameters: dose 10 mg/kg, time < 24 hrs, route po; settings: in vivo
[21] = Toxicity in BALB/c mouse implanted with mouse CT26 cells assessed as lung damage at 100 mg/kg, po measured for 14 days by hematoxylin and eosin staining based fluorescence microscopic analysis; type: organism-based; settings: in vivo, 336 h, time 14 day
[22] = Clearance in ICR mouse at 10 mg/kg, po measured upto 24 hrs by LC-MS/MS analysis; type: ADME, organism-based; settings: in vivo
[23] = AUC(0 to infinity) in ICR mouse at 1 mg/kg, iv measured upto 24 hrs by LC-MS/MS analysis; type: ADME, organism-based; parameters: time < 24 hrs, dose 1 mg/kg, route iv; settings: in vivo
[24] = molecular target: T2, Protein mono-ADP-ribosyltransferase TIPARP (Homo sapiens, UniProt Q7Z3E1); test: Inhibition of human recombinant N-terminal FLAG tagged PARP7 (400 to 657 end residues) incubated for 1 hr by ELISA assay
T2 sequence (Q7Z3E1 whole entry): T1 sequence (whole entry)

[25] = molecular target: Poly [ADP-ribose] polymerase 1 (Homo sapiens, UniProt P09874); test: Inhibition of human recombinant N-terminal GST-tagged PARP1 (2 to 1014 end residues) incubated for 1 hr by ELISA assay
Poly [ADP-ribose] polymerase 1, sequence (P09874 whole entry): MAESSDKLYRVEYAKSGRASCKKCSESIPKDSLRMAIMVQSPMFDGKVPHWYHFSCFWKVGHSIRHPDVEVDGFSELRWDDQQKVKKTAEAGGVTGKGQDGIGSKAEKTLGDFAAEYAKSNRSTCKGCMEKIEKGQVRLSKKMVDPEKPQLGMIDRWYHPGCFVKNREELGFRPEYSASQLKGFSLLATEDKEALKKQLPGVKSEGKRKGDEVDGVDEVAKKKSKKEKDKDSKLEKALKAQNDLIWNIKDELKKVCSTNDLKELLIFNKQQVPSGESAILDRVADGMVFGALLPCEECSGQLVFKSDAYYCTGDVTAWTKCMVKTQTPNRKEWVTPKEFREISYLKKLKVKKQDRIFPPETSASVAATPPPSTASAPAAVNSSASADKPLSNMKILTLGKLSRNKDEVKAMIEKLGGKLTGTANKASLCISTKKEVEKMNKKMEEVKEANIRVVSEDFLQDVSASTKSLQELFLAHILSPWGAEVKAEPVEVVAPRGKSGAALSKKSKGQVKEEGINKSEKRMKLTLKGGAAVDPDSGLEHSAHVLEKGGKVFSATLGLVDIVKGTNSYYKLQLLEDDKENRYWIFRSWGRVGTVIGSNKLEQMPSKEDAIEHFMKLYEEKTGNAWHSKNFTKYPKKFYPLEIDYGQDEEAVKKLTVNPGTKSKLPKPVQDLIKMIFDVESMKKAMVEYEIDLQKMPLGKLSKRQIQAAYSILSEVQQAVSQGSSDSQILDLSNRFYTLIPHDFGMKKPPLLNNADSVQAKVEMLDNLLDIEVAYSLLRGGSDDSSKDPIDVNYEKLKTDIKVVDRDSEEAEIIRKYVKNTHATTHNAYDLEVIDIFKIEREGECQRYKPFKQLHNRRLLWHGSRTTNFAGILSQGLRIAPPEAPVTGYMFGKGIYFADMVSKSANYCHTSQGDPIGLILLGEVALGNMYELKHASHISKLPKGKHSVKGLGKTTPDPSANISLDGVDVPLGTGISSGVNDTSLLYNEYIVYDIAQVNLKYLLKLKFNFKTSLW

SMILES: C[C@@H](CN1CC(C(=O)N2CCN(c3cccc4c3oc3ccccc34)CC2)C1)Nc1cn[nH]c(=O)c1C(F)(F)F
inhibition [1]: 35%

SMILES: C[C@@H](COCCC(=O)N1CCN(c2ncc(C(F)(F)F)cn2)CC1)Nc1cn[nH]c(=O)c1C(F)(F)F [ATAMPARIB]
inhibition in vivo at 100 mg/kg (CT26 [2]): 30% | Activity [3]: Non-Toxic | clearance [4]: 67 mL/min/kg | Tmax [5]: 4.8 min | t1/2 [6]: 54 min | MRT inf [7]: 12 min | t1/2 [8]: 9 min | bioavailability [9]: 25.7% | Activity [10]: Non-Toxic | Activity (CT26 [11]): 48.2% | Tmax [12]: 13.2 min | C0 at 24 h [13]: 1230 ng/mL | IC50 at 6 days [14]: > 50 µM | Vz [15]: 19.694 L/kg | Activity (CT26 [16]): 19.1% | MRT inf [17]: 54 min | Activity [18]: Non-Toxic | Vd [19]: 0.872 L/kg | AUC [20]: 656 ng·h/mL | Activity [21]: Non-Toxic | CL/F [22]: 259 mL/min/kg | AUC [23]: 256 ng·h/mL

SMILES: O=C(C1CN(CCNc2cn[nH]c(=O)c2C(F)(F)F)C1)N1CCN(c2ncc(C(F)(F)F)cn2)CC1
inhibition [1]: 66.8% | IC50 [24]: 0.0393 µM

SMILES: C[C@@H](CN1CC(C(=O)N2CCN(c3nccc(C(F)(F)F)n3)CC2)C1)Nc1cn[nH]c(=O)c1C(F)(F)F
inhibition [1]: 65%

SMILES: C[C@@H](CN1CC(C(=O)N2CCN(c3ccc(C(F)(F)F)cc3)CC2)C1)Nc1cn[nH]c(=O)c1C(F)(F)F
inhibition [1]: 32%

SMILES: C[C@@H](CN1CC(C(=O)N2CCN(c3ncc(-c4ccc(C(F)(F)F)cc4)cn3)CC2)C1)Nc1cn[nH]c(=O)c1C(F)(F)F
inhibition [1]: 40%

SMILES: C[C@@H](CN1CC(C(=O)N2CCN(c3ccc4c(c3)OC(F)(F)O4)CC2)C1)Nc1cn[nH]c(=O)c1C(F)(F)F
inhibition [1]: 90% | IC50 [24]: 0.0194 µM

SMILES: C[C@@H](CN1CCC(C(=O)N2CCN(c3ncc(C(F)(F)F)cn3)CC2)C1)Nc1cn[nH]c(=O)c1C(F)(F)F (some centres undefined)
inhibition [1]: 44.9% | IC50 [25]: 1.13 µM

SMILES: C[C@@H](CN1CCC(C(=O)N2CCN(c3ncc(C(F)(F)F)cn3)CC2)CC1)Nc1cn[nH]c(=O)c1C(F)(F)F
inhibition [1]: 33.6% | IC50 [25]: > 5 µM

SMILES: C[C@@H](CN1CC(C(=O)N2CCN(c3ccc(C(F)(F)F)cn3)CC2)C1)Nc1cn[nH]c(=O)c1C(F)(F)F
inhibition [1]: 82% | IC50 [24]: 0.0145 µM

SMILES: C[C@@H](CN1CC(C(=O)NC2CN(c3ncc(C(F)(F)F)cn3)C2)C1)Nc1cn[nH]c(=O)c1C(F)(F)F
inhibition [1]: 51%

SMILES: CC1CN(c2ncc(C(F)(F)F)cn2)CC(C)N1C(=O)C1CN(C[C@H](C)Nc2cn[nH]c(=O)c2C(F)(F)F)C1 (some centres undefined)
inhibition [1]: 77% | IC50 [24]: 0.11 µM

SMILES: C[C@@H](CN1CC(C(=O)N2C3CC2CN(c2ncc(C(F)(F)F)cn2)C3)C1)Nc1cn[nH]c(=O)c1C(F)(F)F
inhibition [1]: 55.5% | IC50 [24]: 0.116 µM

SMILES: O=C(C1CN(CC2(Nc3cn[nH]c(=O)c3C(F)(F)F)CC2)C1)N1CCN(c2ncc(C(F)(F)F)cn2)CC1
inhibition [1]: 39.6%

Further lines, results first:

inhibition [1]: 71.5% | IC50 [24]: 0.0345 µM
SMILES: C[C@@H](CN1CC(C(=O)N2CCN(c3ncc(C#N)cn3)CC2)C1)Nc1cn[nH]c(=O)c1C(F)(F)F

inhibition [1]: 51.4% | IC50 [24]: 0.0424 µM
SMILES: Cc1cnc(N2CCN(C(=O)C3CN(C[C@H](C)Nc4cn[nH]c(=O)c4C(F)(F)F)C3)CC2)nc1

inhibition [1]: 95% | IC50 [24]: 0.0292 µM
SMILES: C[C@@H](CN1CC(C(=O)N2CCN(c3ncc(S(C)(=O)=O)cn3)CC2)C1)Nc1cn[nH]c(=O)c1C(F)(F)F

inhibition [1]: 85.5% | IC50 [24]: 0.0111 µM
SMILES: C[C@@H](CN1CC(C(=O)N2CCN(c3ncc(Br)cn3)CC2)C1)Nc1cn[nH]c(=O)c1C(F)(F)F

inhibition [1]: 18%
SMILES: C[C@@H](CN1CC(C(=O)N2CCN(c3ncccn3)CC2)C1)Nc1cn[nH]c(=O)c1C(F)(F)F

inhibition [1]: 26%
SMILES: C[C@@H](CN1CC(C(=O)N2CCN(c3ncc(F)cn3)CC2)C1)Nc1cn[nH]c(=O)c1C(F)(F)F

inhibition [1]: 56%
SMILES: COc1cnc(N2CCN(C(=O)C3CN(C[C@H](C)Nc4cn[nH]c(=O)c4C(F)(F)F)C3)CC2)nc1

inhibition [1]: 75.5%
SMILES: C[C@@H](CN1CC(C(=O)N2CCN(c3ncc(Cl)cn3)CC2)C1)Nc1cn[nH]c(=O)c1C(F)(F)F
